Source: patent US20250263436A1, “BROAD-SPECTRUM ANTIVIRAL DRUG FOR ENTEROVIRUS, AND APPLICATION” (WUHAN INSTITUTE OF VIROLOGY, CHINESE ACADEMY OF SCIENCES, priority 2020, published 2025)
Several values for one entry are separate records, joined by “and”; a condition that tells them apart may be missing. Equal entries are not always repeated.

Assays:
[1] = Cytotoxicity of polypeptides in Vero cells (CCK-8); type: cell-based; details: Vero cells, 24 h
Procedure: (§1) Therefore, this standard was testified by cytotoxicity assay, and the cells without any treatment were used as a control group.
(§2) (1) Vero cells were plated in a 96-well plate at 100 μL per well.
(§3) (2) When the cells grew to a confluence of 70%-80%, the DMEM medium containing 10% serum was replaced with a DMEM medium containing 2% serum, and a certain concentration gradient of polypeptide RQ or LQ or SQ was added, so that the final concentrations of the polypeptide in the wells were 0.073242 μM, 0.146484 μM, 0.292969 μM, 0.585938 μM, 1.171875 μM, 2.34375 μM, 4.6875 μM, 9.375 μM, 18.75 μM, 37.5 μM, 75 μM and 150 μM, respectively.
(§4) (3) The samples were collected 24 h after the addition of the polypeptide, and then 10 μL of live cell detection reagent CCK-8 was added to each well and mixed well.
(§5) (4) The plate was placed at 37° C. for 2 h.
(§6) (5) The absorbance value at OD450 was detected by a microplate reader.
(§7) The CC50 of each polypeptide was calculated taking the cell viability of untreated cells as 100%.

Vero cells = experiment: Cytotoxicity of polypeptides in Vero cells (CCK-8); type: cell-based; details: Vero cells, 24 h
Procedure: as §1, §2, §3, §4, §5, §6, §7

EV71 [2] = experiment: Inhibition of EV71 in huh7 cells (viral RNA, qRT-PCR); type: cell-based, enterovirus 71 (EV71); details: anti-EV71 in huh7 cells
Procedure: (§8) (1) Different cells were plated in a 24-well plate.
(§9) (2) When the cells grew to a confluence of 70%-80%, the DMEM medium containing 10% serum was replaced with a DMEM medium containing 2% serum (the DMEM medium containing 2% serum was added in each well at an amount of 0.5 mL), and 5 μL of EV71 virus of 1×10^6 PFU/mL was added to each well.
(§10) (3) After 1 h, different polypeptides (RQ or control TAT) with final concentrations of 0.3125 μM, 0.625 μM, 1.25 μM, 2.5 μM, and 5 μM were added respectively. The group without polypeptide added was used as a control.
(§11) (4) The samples were collected 24 h after the infection of EV71 virus, and RNA was extracted with the total RNA extraction kit.
(§12) (5) The supernatant was discarded, then 350 μL of TRK lysate was added to each well, and the plate was put on a shaker for 5 min.
(§13) (6) 350 μL of 70% ethanol (DEPC) was added to each well, and then the plate was put on a shaker for 5 min.
(§14) (7) The solution in each well was transferred to a RNA extraction column for 1 min of centrifugation at 12000 g.
(§15) (8) The solution obtained in the recovery tube was reloaded on the column again for 1 min of centrifugation at 12000 g.
(§16) (9) RNA washing buffer 1 was added in the column for 30 s of centrifugation at 12000 g. […]
(§17) (14) 2 μL of RNA sample was subjected to a fluorescence quantitative experiment using the one step qRT-PCR kit.

EV71 [3] = experiment: Inhibition of EV71 in 293T cells (viral RNA, qRT-PCR); type: cell-based, enterovirus 71 (EV71); details: anti-EV71 in 293T cells
Procedure: as §8, §9, §10, §11, §12, §13, §14, §15, §16, §17

[4] = Toxicity assay in 293T cells (CCK-8); type: cell-based; details: human, 293T cells, read-out: Viability of Huh7 cell (%)
Procedure: (§18) (1) Different cells were plated in a 96-well plate at 100 μL per well.
(§19) (2) When the cells grew to a confluence of 70%-80%, the DMEM medium containing 10% serum was replaced with a DMEM medium containing 2% serum, and a certain concentration gradient of polypeptide RQ was added, so that the final concentrations of the polypeptide in the wells were 0.073242 μM, 0.146484 μM, 0.292969 μM, 0.585938 μM, 1.171875 μM, 2.34375 μM, 4.6875 μM, 9.375 μM, 18.75 μM, 37.5 μM, 75 μM, 150 μM, and 300 μM, respectively.
as §4, §5, §6

293T cells = experiment: Toxicity assay in 293T cells (CCK-8); type: cell-based; details: 24 h
Procedure: as §18, §19, §4, §5, §6

[5] = Table 15 (third cell line of Example 9), RQ 0.073242 μM

Question: For `CC[C@H](C)[C@H](NC(=O)[C@H](C)NC(=O)[C@H](CO)NC(=O)[C@H](CCCNC(=N)N)NC(=O)[C@H](CC(N)=O)NC(=O)[C@H](CC(N)=O)NC(=O)[C@H](Cc1ccc(O)cc1)NC(=O)[C@H](CCC(=O)O)NC(=O)[C@H](CCCNC(=N)N)NC(=O)CNC(=O)[C@H](CO)NC(=O)CNC(=O)[C@H](CCCNC(=N)N)NC(=O)[C@H](CCCNC(=N)N)NC(=O)[C@H](CCCNC(=N)N)NC(=O)[C@H](CCC(N)=O)NC(=O)[C@H](CCCNC(=N)N)NC(=O)[C@H](CCCNC(=N)N)NC(=O)[C@H](CCCCN)NC(=O)[C@H](CCCCN)NC(=O)[C@H](CCCNC(=N)N)NC(=O)CNC(=O)[C@@H](N)Cc1ccc(O)cc1)C(=O)NCC(=O)N[C@@H](CC(N)=O)C(=O)N[C@H](C(=O)N[C@H](C(=O)N[C@@H](CCC(=O)O)C(=O)N[C@@H](C)C(=O)N[C@@H](CC(C)C)C(=O)N[C@@H](Cc1ccccc1)C(=O)N[C@@H](CCC(N)=O)C(=O)O)[C@@H](C)CC)[C@@H](C)O` [RQ], which CC50 at 24 h ([1]; African green monkey, CCK-8) is on record?
Answer: > 150 µM

Question: And the viability at 24 h, 0.073242 µM ([1]; polypeptide 0.073242 μM, read-out: Cell viability (%))?
Answer: 101%

Question: What about the viability at 24 h, 0.146484 µM ([1]; polypeptide 0.146484 μM, read-out: Cell viability (%)) of the same compound?
Answer: 93.8%

Question: What about the viability at 24 h, 0.292969 µM ([1]; polypeptide 0.292969 μM, read-out: Cell viability (%)) of the same compound?
Answer: 92.7%

Question: What about the viability at 24 h, 0.585938 µM ([1]; polypeptide 0.585938 μM, read-out: Cell viability (%)) of the same compound?
Answer: 92.2%

Question: What about the viability at 24 h, 1.17188 µM ([1]; polypeptide 1.171875 μM, read-out: Cell viability (%)) of the same compound?
Answer: 116%

Question: What about the viability at 24 h, 2.34375 µM ([1]; polypeptide 2.34375 μM, read-out: Cell viability (%)) of the same compound?
Answer: 116%

Question: And the viability at 24 h, 4.6875 µM ([1]; polypeptide 4.6875 μM, read-out: Cell viability (%))?
Answer: 113%

Question: And the viability at 24 h, 9.375 µM ([1]; polypeptide 9.375 μM, read-out: Cell viability (%))?
Answer: 118%

Question: What about the viability at 24 h, 18.75 µM ([1]; polypeptide 18.75 μM, read-out: Cell viability (%)) of the same compound?
Answer: 111%

Question: And the viability at 24 h, 37.5 µM ([1]; polypeptide 37.5 μM, read-out: Cell viability (%))?
Answer: 106%

Question: What about the viability at 24 h, 75 µM ([1]; polypeptide 75 μM, read-out: Cell viability (%)) of the same compound?
Answer: 110%

Question: What about the viability at 24 h, 150 µM ([1]; polypeptide 150 μM, read-out: Cell viability (%)) of the same compound?
Answer: 108%

Question: What about the “Cell viability (%)” value (Vero cells; polypeptide 0.073242 μM) of the same compound?
Answer: 110.2362% and 105.9618%

Question: What about the “Cell viability (%)” value (Vero cells; polypeptide 0.146484 μM) of the same compound?
Answer: 99.1% and 98.99%

Question: And the “Cell viability (%)” value (Vero cells; polypeptide 0.292969 μM)?
Answer: 106.7492%

Question: What about the “Cell viability (%)” value (Vero cells; polypeptide 0.585938 μM) of the same compound?
Answer: 91.56% and 90.78%

Question: What about the “Cell viability (%)” value (Vero cells; polypeptide 1.171875 μM) of the same compound?
Answer: 115.2981% and 115.5231%

Question: And the “Cell viability (%)” value (Vero cells; polypeptide 2.34375 μM)?
Answer: 111.0236% and 119.1226%

Question: What about the “Cell viability (%)” value (Vero cells; polypeptide 4.6875 μM) of the same compound?
Answer: 109.7863% and 118.7852%

Question: And the “Cell viability (%)” value (Vero cells; polypeptide 9.375 μM)?
Answer: 109.3363% and 99.1%

Question: What about the “Cell viability (%)” value (Vero cells; polypeptide 18.75 μM) of the same compound?
Answer: 115.4106% and 105.7368%

Question: And the “Cell viability (%)” value (Vero cells; polypeptide 37.5 μM)?
Answer: 108.5489%

Question: What about the “Cell viability (%)” value (Vero cells; polypeptide 75 μM) of the same compound?
Answer: 127.5591% and 120.5849%

Question: What about the “Cell viability (%)” value (Vero cells; polypeptide 150 μM) of the same compound?
Answer: 103.5996% and 100.1125%

Question: And the IC50 (EV71 [2])?
Answer: 410 nM

Question: And the IC50 (EV71 [3])?
Answer: 3000 nM

Question: And the Viability of 293T cells at 24 h, 0.073242 µM [4, 5]?
Answer: 98.4%

Question: And the Viability of 293T cells at 24 h, 0.146484 µM ([4]; Table 15, RQ 0.146484 μM)?
Answer: 101%

Question: What about the Viability of 293T cells at 24 h, 0.292969 µM ([4]; Table 15, RQ 0.292969 μM) of the same compound?
Answer: 101%

Question: What about the Viability of 293T cells at 24 h, 0.585938 µM ([4]; Table 15, RQ 0.585938 μM) of the same compound?
Answer: 100%

Question: And the Viability of 293T cells at 24 h, 1.17188 µM ([4]; Table 15, RQ 1.171875 μM)?
Answer: 99.7%

Question: And the Viability of 293T cells at 24 h, 2.34375 µM ([4]; Table 15, RQ 2.34375 μM)?
Answer: 99.1%

Question: What about the Viability of 293T cells at 24 h, 4.6875 µM ([4]; Table 15, RQ 4.6875 μM) of the same compound?
Answer: 98.6%

Question: What about the Viability of 293T cells at 24 h, 9.375 µM ([4]; Table 15, RQ 9.375 μM) of the same compound?
Answer: 99.7%

Question: And the Viability of 293T cells at 24 h, 18.75 µM ([4]; Table 15, RQ 18.75 μM)?
Answer: 100%

Question: And the Viability of 293T cells at 24 h, 37.5 µM ([4]; Table 15, RQ 37.5 μM)?
Answer: 102%

Question: What about the Viability of 293T cells at 24 h, 75 µM ([4]; Table 15, RQ 75 μM) of the same compound?
Answer: 102%

Question: What about the Viability of 293T cells at 24 h, 150 µM ([4]; Table 15, RQ 150 μM) of the same compound?
Answer: 66.6%

Question: And the “Viability of 293T cells” value (293T cells; [5])?
Answer: 100.4267% and 97.87%

Question: What about the “Viability of 293T cells” value (293T cells; Table 15, RQ 0.146484 μM) of the same compound?
Answer: 100.8922% and 100.9503%

Question: And the “Viability of 293T cells” value (293T cells; Table 15, RQ 0.292969 μM)?
Answer: 102.4631% and 100.8922%

Question: And the “Viability of 293T cells” value (293T cells; Table 15, RQ 0.585938 μM)?
Answer: 102.8123% and 101.6486%

Question: And the “Viability of 293T cells” value (293T cells; Table 15, RQ 1.171875 μM)?
Answer: 115.4383% and 103.5687%

Question: And the “Viability of 293T cells” value (293T cells; Table 15, RQ 2.34375 μM)?
Answer: 100.3685% and 102.8704%

Question: And the “Viability of 293T cells” value (293T cells; Table 15, RQ 4.6875 μM)?
Answer: 99.96% and 100.0776%

Question: And the “Viability of 293T cells” value (293T cells; Table 15, RQ 9.375 μM)?
Answer: 99.96% and 94.03%

Question: And the “Viability of 293T cells” value (293T cells; Table 15, RQ 18.75 μM)?
Answer: 99.9%

Question: What about the “Viability of 293T cells” value (293T cells; Table 15, RQ 37.5 μM) of the same compound?
Answer: 101.1249% and 102.9286%

Question: And the “Viability of 293T cells” value (293T cells; Table 15, RQ 75 μM)?
Answer: 98.97% and 99.5%

Question: What about the “Viability of 293T cells” value (293T cells; Table 15, RQ 150 μM) of the same compound?
Answer: 63.83% and 64.4104%
